Assay: gradient 5% acetonitrile 3 min, to 50% in 2 min, to 85% in 15 min, held 3 min, 100 µL/min
Details: column: Zorbax Extend-C18 2.1 x 50 mm; eluents: water / acetonitrile, 0.1% formic acid
In short: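 Each retention time is based on an adduct peak selected computationally and verified by manual inspection. Measurements used HPLC–quadrupole time-of-flight mass spectrometry in positive and negative ionization mode on mixtures of ~100 pure standards. Chromatography ran on a Zorbax Extend-C18 column (2.1 × 50 mm, 1.8 μm) at 100 μL/min with water and acetonitrile, each containing 0.1% formic acid, and dead and dwell volumes of 40 μL and 900 μL.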

RP-LC retention time [s] | SMILES
768 | CCn1c(C)c(-c2nc(C3CC3)no2)c(S(=O)(=O)NCC2CCCO2)c1C (configuration not stated)
816 | CC(C)NC(=O)c1cc(N(C)C)nc2c(Cl)cccc12
715 | O=C(CSc1nnc(NC(=O)Cc2cccc3ccccc23)s1)NCC1CCCO1 (configuration not stated)
568 | CC(=O)c1ccc(Nc2c(C(=O)N3CCOCC3)cnc3nc(C)ccc23)cc1
800 | COc1ccc(NC(=O)c2c(O)c3cccnc3n(-c3ccccc3)c2=O)cc1OC
820 | CCCn1cc(CCNC(=O)c2cc(F)cc(F)c2)c2cccnc21
982 | Cc1cc(-c2nnc(-c3ccccc3)o2)c(C)n1CC(=O)NCc1ccc(Cl)cc1
636 | CS(=O)(=O)N1CCCN(C(=O)NC2CCCC2)CC1
1080 | Cc1nn(C)c2nc(OCC(=O)Nc3ccc(Br)cc3F)cc(C(F)(F)F)c12
821 | Cc1ccc(C)c(NC(=O)C2CCCN(S(=O)(=O)c3c[nH]c(C(=O)N4CCCC4)c3)C2)c1 (configuration not stated)
576 | CN1CCN(c2ccc(CNC(=O)C3CCc4sc(C(=O)N(C)C)cc4C3)cc2)CC1 (configuration not stated)
770 | Cc1cccc2c(=O)n(C3CCN(C(=O)Nc4ccc(F)cc4F)CC3)cnc12
748 | N#Cc1cccc(NC(=O)C2CCN(S(=O)(=O)c3cc(C(=O)N4CCOCC4)cs3)CC2)c1
771 | Cc1nc2cc(NC(=O)COc3ccccc3)ccc2s1
601 | Cc1cccc(NC(=O)Cn2c(N)nc(C)cc2=O)c1
844 | O=C(Nc1nc(-c2ccc([N+](=O)[O-])cc2)cs1)C1=COCCO1
687 | COCCNC(=O)c1nnc(-c2ccc(S(=O)(=O)N(C)C)cc2)o1
674 | Cc1ccnc(NC(=O)C2CCN(S(=O)(=O)c3cc(C(=O)N4CCCC4)n(C)c3)CC2)c1
1070 | COc1cc(Cl)ccc1C(=O)N1CCCC1c1nc(-c2ccccc2)no1 (configuration not stated)
622 | Cc1nc(C2CCOCC2)n(C2CCN(S(=O)(=O)c3cccnc3)C2)n1 (configuration not stated)
802 | C[C@@H]1C(=O)O[C@H]2[C@H](O)[C@@]34C5C[C@@H](C(C)(C)C)[C@]36[C@H](OC(=O)[C@@H]6O)OC4(C(=O)O5)[C@@]12O (some centres not stated)

RP-LC retention time [s] | SMILES
667 | COc1ccc(NC(=O)Cn2cc(C(=O)N3CCCC3)c(=O)c3ccc(C)nc32)cc1
778 | COCC(=O)NC1CCC12CCN(C(=O)CC1CCCCC1)CC2 (configuration not stated)
839 | CCn1cc(S(=O)(=O)N2CC(Oc3cccc(-c4nc(C)no4)c3)C2)cn1
988 | COc1ccccc1NC(=O)Cn1c(C)cc(-c2nnc(-c3ccccc3)o2)c1C
1050 | CCOc1ccc(S(=O)(=O)c2ccc(C)cc2)c2c1no[n+]2[O-]
885 | CCc1ccc(NC(=O)COc2cc(C)nc(N3CCN(c4ccccc4)CC3)n2)cc1
948 | Cc1ccc(S(=O)(=O)N2CC(=O)N(c3cccc(F)c3)C(C)(C(=O)NCc3ccccc3)C2)cc1 (configuration not stated)
607 | Fc1ccc(-c2nc(-c3cn(-c4ccccc4)nn3)no2)cc1
818 | Cc1ccc(CNC(=O)C2CCN(C(=O)C3Sc4ccccc4NC3=O)CC2)cc1 (configuration not stated)
749 | CCSc1nc(NCC(C)C)c2cnn(CCNC(=O)c3cn(C)nc3OC)c2n1
631 | CCc1cc(=O)n(CC(=O)Nc2ccc(C)cc2C)c(N)n1
643 | COCCC(=O)N1CCCCC1c1nncn1Cc1ccccc1 (configuration not stated)
636 | Cc1cc(N2CCN(C)CC2)nc2ccc(NC(=S)N3CCC(Cc4ccccc4)CC3)cc12
779 | COCCc1noc(-c2cnc3nc(C)ccc3c2Nc2ccccc2Cl)n1
672 | Cc1noc([C@@H]2CN(C(=O)CC3CCCC3)C[C@H]2CO)n1
613 | O=C(NCc1ccccc1)c1ccc2ncnc(N3CCCC3)c2c1
919 | COc1ccc(OCc2nc(CCN(C)C(=O)CC3CCCC3)no2)cc1
745 | CCNC(=O)c1nc2cc(C)c(C)cc2n(CC)c1=O
955 | Cc1ccc(-c2nnc(-c3nc(NCCc4c(C)noc4C)c4ccccc4n3)o2)cc1
657 | CCn1c(CN(C)C(=O)Nc2ccc(Br)cc2)nc2cc(C(=O)N(C)C)ccc21
619 | O=C(NCC1CC1)c1cccc(N2CCNC(c3ccccc3)C2)n1 (configuration not stated)

RP-LC retention time [s] | SMILES
1080 | O=C(c1ccc(C(F)(F)F)cc1)N1CCc2nc(-c3ccc(F)cc3)ncc2C1
996 | Cc1ccc(S(=O)(=O)N2CCC(C(=O)NCc3csc(-c4ccccc4)n3)CC2)c(C)c1
614 | CCN1C(=O)NC(c2ccc(C)cc2C)C2=C1CN(CCC(=O)N1CCOCC1)C2=O (configuration not stated)
905 | O=C(c1nnc(-c2ccc(S(=O)(=O)N3CCOCC3)cc2)o1)N1CCN(c2ccccc2)CC1
679 | COC1CCC12CCN(C(=O)c1conc1C)CC2 (configuration not stated)
733 | CCOc1ccc(NC(=O)c2cccn2-c2cccnc2)cc1
658 | COc1cccc(NC(=O)Cn2c(N3CCCCC3)nc(C)cc2=O)c1
1190 | Cc1ccc(-c2ccc(-n3nc(C)c(S(=O)(=O)N4CCCCC4)c3C)nn2)cc1
605 | Cc1c(C(=O)NC2CC2)cc(-c2ccccc2)n1C
861 | CCS(=O)(=O)N1CC(=O)N(c2cc(C)ccc2C)C(C)(C(=O)NCc2ccc(F)cc2)C1 (configuration not stated)
768 | Cc1ccc(CNS(=O)(=O)c2cc(-c3[nH]ncc3C(=O)N3CCCC3)oc2C)cc1C
587 | CCCn1ccc2sc(C)c(C(=O)N3CCN(C(C)C)CC3)c2c1=O
1080 | CCCOc1ccc(-c2csc(NC(=O)c3sc(C)nc3C)n2)cc1
951 | Cc1ccc(NC(=O)c2cccc([N+](=O)[O-])c2O)c(C)c1
1120 | Cc1ccccc1-n1c(=O)c2sccc2n(Cc2nc(-c3ccc(Cl)c(F)c3)no2)c1=O
702 | O=C(Nc1ccc(-c2cn3cccnc3n2)cc1)c1cccc(Br)c1
1120 | CCCCCCCCCCNCCSSCc1ccc(Cl)cc1
934 | COc1ccc(-c2noc(C3CC(=O)N(c4cccc(Cl)c4)C3)n2)cc1OC (configuration not stated)
631 | CC(C)c1ccc2nc3ccc(C(=O)NCCN(C)C)cn3c(=O)c2c1
591 | NC(=O)C1CCN(C(=O)CN2CCC(Cc3ccccc3)CC2)CC1
819 | COc1ccccc1CN1CC(=O)N(c2cccc(C)c2)[C@@H]2CS(=O)(=O)C[C@@H]21

RP-LC retention time [s] | SMILES
901 | CCc1nn2c(CNS(=O)(=O)c3ccccc3)c(-c3ccccc3)nc2s1
1080 | COc1ccc(-c2nc(Cc3noc(-c4ccccc4F)n3)c(C)o2)cc1
727 | Cc1ccn2c(Nc3ccc4c(c3)OCCO4)c(-c3cccc(Cl)c3)nc2c1
875 | CC1Cc2cc(-c3cc(CNC(=O)c4ccccc4C(F)(F)F)no3)ccc2O1 (configuration not stated)
692 | CCc1ccc(C(O)CN2CCN(c3ccccc3)CC2)cc1 (configuration not stated)
724 | C[C@H](CCC(=O)NCCS(=O)(=O)O)[C@H]1CC[C@H]2[C@@H]3CC[C@@H]4C[C@H](O)CC[C@]4(C)[C@H]3C[C@H](O)[C@]12C
957 | CCc1nc2c(NC(=O)Nc3ccc4c(c3)CCC4)cccn2n1
867 | COc1ccc(CNC(=O)c2csc(-c3cn(C)c4ncccc34)n2)cc1
759 | COc1ccc(CC(=O)N2CCC3(CC2)NC(=O)c2ccc(F)cc2N3C)cc1
847 | Cc1ccc(NC(=O)C2CCCN(S(=O)(=O)c3cn(C(C)C)cn3)C2)cc1F (configuration not stated)
838 | O=C(c1ccoc1)N1CCN(C(=O)c2nnn3c2COC(c2ccc(Cl)cc2)C3)CC1 (configuration not stated)
703 | COc1ccc(NC(=O)Cc2csc3nc(-c4ccccc4)cn23)cc1OC
991 | CC(C)(C)NC(=O)CSc1nc(-c2cccs2)cc(C(F)(F)F)c1C#N
839 | Cc1nn(-c2ccccc2)c2c1N(CC(=O)N1CCN(c3ccccc3)CC1)C(=O)CS2
770 | CCOc1cccc(CN2C[C@@H]3C(=O)N(Cc4ccc5c(c4)OCO5)C(=O)[C@@H]3C2)c1
929 | Cc1ccc(C)c(S(=O)(=O)N2CC(c3noc(C)n3)C3(CCOCC3)C2)c1 (configuration not stated)
660 | O=C(CCCCCCC(=O)Nc1ccccc1)NO
896 | CCc1nc(-c2csc(S(=O)(=O)N3CCCC(C(=O)Nc4cc(C)on4)C3)c2)no1 (configuration not stated)
901 | Cc1ccc(Cl)c(NS(=O)(=O)c2cc3c(s2)CCN(C(=O)C2CC2)C3)c1
711 | COc1cc(OC)c(NC(=O)N2CCC(n3c(C)nc4cccnc43)CC2)cc1Cl

SMILES | RP-LC retention time [s]
O=C(N[C@H]1CN2CCC1CC2)c1ccc(Cl)cc1 | 630
COc1ccc(NC(=O)N2CCC3(C2)C(=O)N(C)c2ccc(OC)cc23)cc1 (configuration not stated) | 732
Nc1ccc(CCN2CCN(c3cccc(C(F)(F)F)c3)CC2)cc1 | 633
CN1CC[C@]2(c3cccc(O)c3)Cc3nc4ccccc4cc3C[C@H]2C1 | 572

Reference: the METLIN SMRT retention time set (Domingo-Almenara et al. 2019)
